Experimental findings from ChEMBL document CHEMBL1130987, “The asymmetric synthesis and in vitro characterization of succinyl mercaptoalcohol and mercaptoketone inhibitors of matrix metalloproteinases” (Bioorg Med Chem Lett, 1998) are described below.

Bounds are passed on as bounds.

One assay addresses Stromelysin-1 (Homo sapiens, UniProt P08254). The assay is described as follows: Inhibition of matrix metalloprotease-3, stromelysin-1.
The target of assay [1] is Matrix metalloproteinase-9 (Homo sapiens, UniProt P14780). As to the kind of experiment: Inhibition of matrix metalloprotease-9, gelatinase-B.
The target of a further assay is T1, Interstitial collagenase (Homo sapiens, UniProt P03956).
T1 sequence (P03956 whole entry): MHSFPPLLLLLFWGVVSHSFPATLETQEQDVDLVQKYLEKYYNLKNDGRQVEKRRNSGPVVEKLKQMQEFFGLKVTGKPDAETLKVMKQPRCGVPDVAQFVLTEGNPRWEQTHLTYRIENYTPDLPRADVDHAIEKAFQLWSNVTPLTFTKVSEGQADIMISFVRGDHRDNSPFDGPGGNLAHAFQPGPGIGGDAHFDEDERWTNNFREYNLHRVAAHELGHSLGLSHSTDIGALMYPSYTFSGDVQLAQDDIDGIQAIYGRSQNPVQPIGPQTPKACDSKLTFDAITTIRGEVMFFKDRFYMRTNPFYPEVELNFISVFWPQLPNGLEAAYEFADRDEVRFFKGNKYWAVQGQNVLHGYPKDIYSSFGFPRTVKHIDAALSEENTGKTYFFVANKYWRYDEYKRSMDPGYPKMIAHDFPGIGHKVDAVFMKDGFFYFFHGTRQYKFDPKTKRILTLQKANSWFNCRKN
The assay is described as follows: Inhibition of matrix metalloprotease-1, Collagenase-1.

For orientation: IC50 means the concentration that inhibits the measured activity by half. Higher therefore signals a need for much substance.

Chain of Matrix metalloproteinase-9 (P14780 whole entry): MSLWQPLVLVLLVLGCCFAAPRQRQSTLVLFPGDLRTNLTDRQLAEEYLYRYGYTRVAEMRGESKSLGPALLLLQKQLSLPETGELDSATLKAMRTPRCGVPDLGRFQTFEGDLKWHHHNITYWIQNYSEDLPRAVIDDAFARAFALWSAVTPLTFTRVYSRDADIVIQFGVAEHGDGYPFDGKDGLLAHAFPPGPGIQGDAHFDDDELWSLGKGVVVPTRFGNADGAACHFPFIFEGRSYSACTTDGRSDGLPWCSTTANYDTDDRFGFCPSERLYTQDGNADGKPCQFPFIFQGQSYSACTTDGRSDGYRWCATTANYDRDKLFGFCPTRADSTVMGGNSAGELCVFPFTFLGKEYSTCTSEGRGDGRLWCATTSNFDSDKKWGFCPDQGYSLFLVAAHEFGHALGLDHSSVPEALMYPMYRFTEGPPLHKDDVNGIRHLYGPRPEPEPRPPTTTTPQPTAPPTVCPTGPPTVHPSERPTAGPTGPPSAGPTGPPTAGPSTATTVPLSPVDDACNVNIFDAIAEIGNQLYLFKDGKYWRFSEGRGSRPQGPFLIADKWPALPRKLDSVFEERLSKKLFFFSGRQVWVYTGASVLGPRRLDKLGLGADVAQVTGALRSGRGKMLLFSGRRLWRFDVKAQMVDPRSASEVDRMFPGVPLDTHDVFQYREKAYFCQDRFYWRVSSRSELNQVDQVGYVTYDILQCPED
Chain of Stromelysin-1 (P08254 whole entry): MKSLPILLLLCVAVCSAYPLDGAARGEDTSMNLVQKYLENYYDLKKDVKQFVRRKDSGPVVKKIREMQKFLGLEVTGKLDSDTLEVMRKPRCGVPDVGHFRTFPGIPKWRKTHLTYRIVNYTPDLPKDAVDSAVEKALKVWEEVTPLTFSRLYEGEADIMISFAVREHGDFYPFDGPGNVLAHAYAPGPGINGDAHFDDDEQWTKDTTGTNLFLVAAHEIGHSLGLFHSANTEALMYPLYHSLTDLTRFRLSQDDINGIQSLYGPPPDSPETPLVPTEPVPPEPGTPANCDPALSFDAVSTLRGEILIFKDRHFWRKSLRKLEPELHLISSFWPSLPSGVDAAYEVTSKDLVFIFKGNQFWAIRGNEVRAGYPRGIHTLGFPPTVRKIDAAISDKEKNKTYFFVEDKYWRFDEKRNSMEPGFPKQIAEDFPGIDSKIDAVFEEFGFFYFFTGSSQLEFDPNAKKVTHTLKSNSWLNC

With `CNC(=O)[C@@H](NC(=O)[C@H](CC(C)C)C[C@@H](O)CS)C(C)(C)C`, the IC50 against Stromelysin-1 came to 3700 nM; in assay [1] it was 250 nM; against Interstitial collagenase it was 46 nM.
The like results for `CCCCCCC[C@H](C[C@H](O)CS)C(=O)N[C@H](C(=O)NC)C(C)(C)C` were, in that order, 9 nM, 0.14 nM and 5 nM.
The like results for `CCCCCCC[C@H](CC(=O)CS)C(=O)N[C@H](C(=O)NC)C(C)(C)C` were, in that order, 8 nM, 0.14 nM and 10 nM.
The matching figures for `CCCCCCC[C@H](CC(=O)CS)C(=O)N[C@@H](CC(C)C)C(=O)NC(=O)C(CC(C)C)NCC` (stereo not given in full): 36 nM, 20 nM and over 10000 nM.
As to `CNC(=O)[C@@H](NC(=O)[C@H](CC(C)C)C[C@H](O)CS)C(C)(C)C`, the IC50 against Stromelysin-1 came to 470 nM; in assay [1], 8 nM; against Interstitial collagenase, 11 nM.
The matching figures for `CCCCCCC[C@H](C[C@@H](O)CS)C(=O)N[C@H](C(=O)NC)C(C)(C)C`: 430 nM, 12 nM and 140 nM.
The like results for `CNC(=O)[C@@H](NC(=O)[C@@H](CC(=O)CS)CC(C)C)C(C)(C)C` were, in that order, 480 nM, 8 nM and 11 nM.
The matching figures for `CCCCCCC[C@H](C[C@H](O)CS)C(=O)N[C@@H](CC(C)C)C(=O)NC(=O)C(CC(C)C)NCC` (stereo not given in full): 39 nM, 24 nM and over 4000 nM.
As for `CNC(=O)[C@@H](NC(=O)[C@@H](CC(=O)NO)CC(C)C)C(C)(C)C` [RO-319790], it took 5 nM to reach half-maximal inhibition at Interstitial collagenase (IC50).
